From ChEMBL document CHEMBL4665789, “Discovery of Novel pERK1/2- or β-Arrestin-Preferring 5-HT Receptor-Biased Agonists: Diversified Therapeutic-like versus Side Effect Profile” (J Med Chem, 2020)
Activity calls are given as the source filed them. No cut-off for these calls is given here.

Columns and labels:
[1] = target: T1, Adrenergic receptor alpha-1 (Rattus norvegicus, UniProt P15823+P23944+P43140); assay: Displacement of [3H]prazosin from alpha1 adrenergic receptor in rat cortex membranes measured after 30 mins by Microbeta2 scintillation counting method; assay type: cell membranes
T1 sequence (P15823 whole entry): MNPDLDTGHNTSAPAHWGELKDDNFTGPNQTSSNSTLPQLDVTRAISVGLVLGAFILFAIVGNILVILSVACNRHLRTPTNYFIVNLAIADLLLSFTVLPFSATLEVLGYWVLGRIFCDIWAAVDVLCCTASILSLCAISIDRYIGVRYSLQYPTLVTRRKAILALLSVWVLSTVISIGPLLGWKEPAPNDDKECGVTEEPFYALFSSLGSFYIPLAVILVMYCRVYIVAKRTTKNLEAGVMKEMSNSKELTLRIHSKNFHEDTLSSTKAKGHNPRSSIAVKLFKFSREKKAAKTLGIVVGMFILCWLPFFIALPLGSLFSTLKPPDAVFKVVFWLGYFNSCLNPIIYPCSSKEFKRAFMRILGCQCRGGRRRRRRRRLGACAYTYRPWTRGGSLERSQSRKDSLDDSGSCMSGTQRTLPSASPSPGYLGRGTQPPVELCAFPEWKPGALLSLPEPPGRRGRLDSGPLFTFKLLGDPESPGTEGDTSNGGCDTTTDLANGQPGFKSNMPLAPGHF
T1 sequence (P23944 whole entry): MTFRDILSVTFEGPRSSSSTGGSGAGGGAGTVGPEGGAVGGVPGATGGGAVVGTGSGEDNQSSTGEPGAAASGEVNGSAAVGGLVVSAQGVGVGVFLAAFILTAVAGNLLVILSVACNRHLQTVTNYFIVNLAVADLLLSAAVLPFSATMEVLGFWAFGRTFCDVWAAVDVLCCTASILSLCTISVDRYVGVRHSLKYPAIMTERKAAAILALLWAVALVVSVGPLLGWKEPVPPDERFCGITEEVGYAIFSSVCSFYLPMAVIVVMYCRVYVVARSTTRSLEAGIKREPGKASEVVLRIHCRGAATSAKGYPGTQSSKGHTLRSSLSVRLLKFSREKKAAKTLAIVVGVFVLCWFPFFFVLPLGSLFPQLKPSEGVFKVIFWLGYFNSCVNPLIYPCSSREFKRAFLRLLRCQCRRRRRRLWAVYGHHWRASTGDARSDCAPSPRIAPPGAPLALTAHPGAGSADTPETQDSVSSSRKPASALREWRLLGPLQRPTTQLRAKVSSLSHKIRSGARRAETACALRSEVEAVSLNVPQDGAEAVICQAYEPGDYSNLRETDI
T1 sequence (P43140 whole entry): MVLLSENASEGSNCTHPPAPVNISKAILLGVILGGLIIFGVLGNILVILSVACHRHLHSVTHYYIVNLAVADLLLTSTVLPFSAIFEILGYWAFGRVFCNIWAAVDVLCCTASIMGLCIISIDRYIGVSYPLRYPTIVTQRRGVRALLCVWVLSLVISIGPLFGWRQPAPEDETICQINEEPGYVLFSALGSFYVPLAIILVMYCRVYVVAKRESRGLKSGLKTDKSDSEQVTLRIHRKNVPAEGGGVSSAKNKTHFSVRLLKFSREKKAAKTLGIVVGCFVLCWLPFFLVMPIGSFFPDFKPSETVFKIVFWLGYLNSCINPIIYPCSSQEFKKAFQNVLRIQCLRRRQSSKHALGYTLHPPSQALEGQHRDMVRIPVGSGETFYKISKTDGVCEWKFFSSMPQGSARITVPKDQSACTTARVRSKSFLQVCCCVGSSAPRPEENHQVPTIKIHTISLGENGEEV

[2] = target: T2, 5-hydroxytryptamine receptor 1A (Homo sapiens, UniProt P08908); assay: Biased agonist activity at human 5-HT1A receptor stably expressed in CHO-K1 cells assessed as increase in ERK1/2 phosphorylation after 15 mins by Alphalisa assay
T2 sequence (P08908 whole entry): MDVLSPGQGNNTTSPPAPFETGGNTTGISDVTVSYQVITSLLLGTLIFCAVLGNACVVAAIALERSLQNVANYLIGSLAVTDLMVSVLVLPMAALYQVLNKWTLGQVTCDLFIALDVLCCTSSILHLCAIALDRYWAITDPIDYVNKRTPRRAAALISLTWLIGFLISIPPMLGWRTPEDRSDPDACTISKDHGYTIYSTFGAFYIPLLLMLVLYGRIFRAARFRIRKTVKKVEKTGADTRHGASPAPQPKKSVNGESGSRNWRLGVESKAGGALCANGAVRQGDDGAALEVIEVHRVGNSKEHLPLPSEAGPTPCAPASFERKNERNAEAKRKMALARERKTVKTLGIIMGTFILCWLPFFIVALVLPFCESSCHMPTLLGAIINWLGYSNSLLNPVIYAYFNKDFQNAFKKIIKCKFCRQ

[3] = target: T2, 5-hydroxytryptamine receptor 1A; assay: Biased agonist activity at human 5-HT1A receptor stably expressed in CHO-K1 cells assessed as inhibition of forskolin-induced cAMP accumulation after 40 mins by LANCE Ultra cAMP kit-based TR-FRET assay; assay type: functional, cell-based
[4] = target: T2, 5-hydroxytryptamine receptor 1A; assay: Biased agonist activity at human 5-HT1A receptor stably expressed in CHO-K1 cells co-expressing Galpha16/GPCR assessed as increase in calcium mobilization measured for 30 secs in presence of coelenterazine by aequorin-reporter gene based luminescence assay; assay type: functional, cell-based
D(2) dopamine receptor = D(2) dopamine receptor (Homo sapiens, UniProt P14416); assay: Displacement of [3H]methylspiperone from human D2 receptor stably expressed in CHO-K1 cell membranes measured after 60 mins by Microbeta2 scintillation counting method
[5] = target: T2, 5-hydroxytryptamine receptor 1A; assay: Displacement of [3H]8-OH-DPAT from human 5-HT1A receptor stably expressed in CHO-K1 cell membranes measured after 60 mins by Microbeta2 scintillation counting method
[6] = target: T2, 5-hydroxytryptamine receptor 1A; assay: Biased agonist activity at Gal4-VP16 transcription factor linked human 5-HT1A receptor expressed in human U2OS cells assessed as induction of beta-arrestin2 recruitment measured after 5 hrs by Tango assay; assay type: cell-based
[7] = Stability in rat liver microsomes assessed as parent compound remaining at 50 uM preincubated for 5 mins followed by NADPH addition and measured after 2 hrs by LC-MS analysis; assay type: ADME, Microsome; details: time 125 min, read-out: Stabilty
[8] = Permeability of the compound at 100 uM measured after 40 mins by PAMPA; assay type: ADME; details: read-out: permeability
[9] = Hepatotoxicity in human HepG2 cells assessed as concentration required to show 50% cell viability measured after 72 hrs by celltiter 96 aqueous non-Radioactive cell proliferation assay; assay type: toxicity, cell-based; details: read-out: Activity
Rattus norvegicus [10] = assay: Antidepressant activity in po dosed Wistar rat assessed as reduction in immobility time treated 60 mins prior to testing and measured during the 5 min test period by Porsolt-forced swim test; assay type: functional; details: 1 h, read-out: MED
Rattus norvegicus [11] = assay: Antidepressant activity in Wistar rat assessed as reduction in immobility time at […], po treated 60 mins prior to testing and measured during the 5 min test period in presence of WAY100635 by Porsolt-forced swim test; assay type: functional, organism-based
[12] = Drug uptake in Wistar rat serum at 0.31 to 1.25 mg/kg, po by HPLC analysis; assay type: ADME, organism-based; details: in vivo, dose 0.31-1.25 mg/kg
[13] = Drug uptake in Wistar rat brain at 0.31 to 1.25 mg/kg, po by HPLC analysis; assay type: ADME, organism-based; details: in vivo, dose 0.31-1.25 mg/kg
[14] = Toxicity in po dosed Wistar rat assessed as induction of lower lip retraction at 2 times MED treated for 10 mins; assay type: organism-based; details: in vivo
[15] = Toxicity in po dosed Wistar rat assessed as induction of lower lip retraction at 4 times MED treated for 10 mins; assay type: organism-based; details: in vivo
[16] = Drug uptake in Wistar rat brain at 0.04 to […], po by HPLC analysis; assay type: ADME, organism-based; details: in vivo, dose 0.04-0.63 mg/kg
[17] = Drug uptake in Wistar rat serum at 0.04 to […], po by HPLC analysis; assay type: ADME, organism-based; details: in vivo, dose 0.04-0.63 mg/kg

Chain of D(2) dopamine receptor (P14416 whole entry): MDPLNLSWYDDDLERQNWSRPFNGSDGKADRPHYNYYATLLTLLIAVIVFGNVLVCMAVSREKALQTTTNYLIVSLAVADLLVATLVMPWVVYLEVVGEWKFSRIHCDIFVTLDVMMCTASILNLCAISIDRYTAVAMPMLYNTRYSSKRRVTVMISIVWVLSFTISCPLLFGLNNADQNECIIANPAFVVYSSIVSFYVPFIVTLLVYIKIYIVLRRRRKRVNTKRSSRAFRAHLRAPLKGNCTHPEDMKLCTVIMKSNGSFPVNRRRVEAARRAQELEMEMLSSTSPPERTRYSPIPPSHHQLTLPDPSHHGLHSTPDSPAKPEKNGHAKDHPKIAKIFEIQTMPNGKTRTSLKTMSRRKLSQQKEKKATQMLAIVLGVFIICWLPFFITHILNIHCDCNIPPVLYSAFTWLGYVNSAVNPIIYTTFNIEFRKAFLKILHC

With O=C(c1ccc(F)c(Cl)c1)N1CCC(F)(CNCCOc2ccccc2Cl)CC1 as the molecule, how does the pKi [1] read?
The pKi was less than 6.

For O=C(c1ccc(Cl)c(Cl)c1)N1CCC(F)(CNCCOc2cccc(F)c2)CC1, which EC50 [2] is on record?
Its EC50 is 20 nM.

And the EC50 [3]?
The EC50 was 39.8 nM.

What about the EC50 [4] of the same molecule?
Its EC50 is 646 nM.

What about the Ki (D(2) dopamine receptor) of the same molecule?
Its Ki is greater than 1000 nM.

And the pKi [1]?
The pKi was 6.2.

And the Ki [5]?
Its Ki is 0.0204 nM.

What about the EC50 [6] of the same molecule?
The EC50 was 617 nM.

With O=C(c1ccc(F)c(Cl)c1)N1CCC(F)(CNCCOc2cccc3cccnc23)CC1 as the molecule, how does the remaining at 2 h, 50 µM [7] read?
Its remaining at 2 h, 50 µM is 73%.

Which pKi [1] does the source give for O=C(c1ccc(F)c(Cl)c1)N1CCC(F)(CNCCOc2cccc(C(F)(F)F)c2)CC1 here?
The pKi was less than 6.

Which pKi [1] does the source give for O=C(c1ccc(F)c(Cl)c1)N1CCC(F)(CNCCOc2ccccc2F)CC1 here?
Its pKi is less than 6.

Which results are given for O=C(c1ccc(F)c(Cl)c1)N1CCC(F)(CNCCOc2ccccc2)CC1?
Papp at 40 min, 100 µM [8]: 8.6 ×10⁻⁶ cm/s; CC50 at 72 h [9]: > 50000 nM; remaining at 2 h, 50 µM [7]: 54%

Which pKi [1] does the source give for COc1ccc(OCCNCC2(F)CCN(C(=O)c3ccc(Cl)c(Cl)c3)CC2)cc1 here?
Its pKi is less than 6.

What does the source list for O=C(c1ccc(F)c(Cl)c1)N1CCC(F)(CNCCOc2cccc3[nH]ccc23)CC1?
Papp at 40 min, 100 µM [8]: 4.7 ×10⁻⁶ cm/s; minimal effective dose (Rattus norvegicus [10]): 0.63 mg/kg; Activity (Rattus norvegicus [11]): inactive; CC50 at 72 h [9]: > 50000 nM; Drug uptake [12]: Active; Drug uptake [13]: Active; Activity [14]: Toxic

Which remaining at 2 h, 50 µM [7] does the source give for O=C(c1ccc(F)c(Cl)c1)N1CCC(F)(CNCCOc2ccccn2)CC1 here?
The remaining at 2 h, 50 µM was 54%.

With O=C(c1ccc(Cl)c(Cl)c1)N1CCC(F)(CNCCOc2cccc(Cl)c2)CC1 as the molecule, how does the Ki (D(2) dopamine receptor) read?
Its Ki is greater than 1000 nM.

And the pKi [1]?
The pKi was less than 6.

And the Ki [5]?
The Ki was 0.0251 nM.

Which EC50 [2] does the source give for O=C(c1ccc(F)c(Cl)c1)N1CCC(F)(CNCCOc2cccc3c2CCN3)CC1 here?
The EC50 was 0.00363 nM.

What about the EC50 [3] of the same molecule?
The EC50 was 0.0132 nM.

And the EC50 [4]?
The EC50 was 3.55 nM.

And the Ki (D(2) dopamine receptor)?
Its Ki is greater than 1000 nM.

And the pKi [1]?
The pKi was 6.36.

And the Ki [5]?
The Ki was 0.0447 nM.

What about the EC50 [6] of the same molecule?
Its EC50 is 0.00513 nM.

With CC(=O)Nc1cccc(OCCNCC2(F)CCN(C(=O)c3ccc(Cl)c(Cl)c3)CC2)c1 as the molecule, how does the pKi [1] read?
Its pKi is less than 6.

With CC1(C)Cc2cccc(OCCNCC3(F)CCN(C(=O)c4ccc(F)c(Cl)c4)CC3)c2O1 as the molecule, how does the pKi [1] read?
Its pKi is 7.76.

For CC(=O)Nc1cccc(OCCNCC2(F)CCN(C(=O)c3ccc(F)c(Cl)c3)CC2)c1, which remaining at 2 h, 50 µM [7] is on record?
Its remaining at 2 h, 50 µM is 73%.

For CN(C)c1cccc(OCCNCC2(F)CCN(C(=O)c3ccc(F)c(Cl)c3)CC2)c1, which pKi [1] is on record?
Its pKi is less than 6.

For CNc1ccccc1OCCNCC1(F)CCN(C(=O)c2ccc(F)c(Cl)c2)CC1, which Activity [15] is on record?
Its Activity is “Non-Toxic”.

And the Papp at 40 min, 100 µM [8]?
Its Papp at 40 min, 100 µM is 6.7 ×10⁻⁶ cm/s.

And the Drug uptake [16]?
Its Drug uptake is “Active”.

And the minimal effective dose (Rattus norvegicus [10])?
The minimal effective dose was 0.16 mg/kg.

What about the pKi [1] of the same molecule?
Its pKi is 6.04.

And the remaining at 2 h, 50 µM [7]?
The remaining at 2 h, 50 µM was 54%.

And the Drug uptake [17]?
Its Drug uptake is “Active”.

What does the source list for Cc1cnc(CNCC2(F)CCN(C(=O)c3ccc(F)c(Cl)c3)CC2)nc1?
EC50 [4]: 302 nM; pKi [1]: < 6

Which CC50 at 72 h [9] does the source give for N#CC(C#N)=NNc1cccc(Cl)c1 [CARBONYL CYANIDE M-CHLOROPHENYLHYDRAZONE] here?
Its CC50 at 72 h is less than 10000 nM.

With COc1cccc2c1C(=O)c1c(O)c3c(c(O)c1C2=O)C[C@@](O)(C(=O)CO)C[C@@H]3O[C@H]1C[C@H](N)[C@H](O)[C@H](C)O1 [DOXORUBICIN] as the molecule, how does the CC50 at 72 h [9] read?
Its CC50 at 72 h is less than 1000 nM.
